{
  "source": "paper PMC6235002",
  "about": "“Born to sense: biophysical analyses of the oxygen sensing prolyl hydroxylase from the simplest animal Trichoplax adhaerens” (Hypoxia, 2018)",
  "molecules": {"B1": {"name": "TaPHD^64-300 (Trichoplax adhaerens) (protein)", "chain": "MDERRPKIGCDKTGLALEKTWQLQKNERLSNMVVNQLNTNGFCIINNFLGSSCSTEVLQQVLNLYQSGVFSNGQLARNVSVNRIRGDKIAWIGGDERGCEAIKYLSSCVDSLISRCNGRLGNYMITGRTKCMVACYPGSGLGYIRHIDNPNRDGRCVTVLYYLNPNWNSQDCGGQLWLYPNNENKVVKIDPIFDRLLLFWSDRRNPHEVKPAYAMRYAITLWYFDEKERALSSQNGT"}},
  "key": {"[1]": {"target": "T1, TaPHD^64-300 (Trichoplax adhaerens, UniProt I6QVT6)", "test": "MALDI-TOF-MS peptide hydroxylation steady-state kinetics, TaPHD^64-300", "assay_type": "biochemical", "details": "for Km / kcat (peptide substrate): peptide varied, 3.5–7.0 µM enzyme, 50 µM (NH4)2Fe(II)(SO4)2, 4 mM ascorbate, 300 µM 2OG; for Km: 50 mM Tris pH 7.5, Michaelis-Menten fit, ± SD, n=3, read-out: Km (peptide substrate); for kcat (peptide substrate): 50 mM Tris pH 7.5, ± SD, n=3", "protocol": "(§1) Notes: (A) Sequence alignment of TaHIFa, HsHIFa, and substrates of PHD-like enzymes in Dictyostelium discoideum (DdSkp1) and Pseudomonas putida (PpEF-Tu). […] Peptide hydroxylation was analyzed by MALDI-MS; the apparent non-enzymatic Met oxidation was subtracted. Data were fitted with the Michaelis-Menten equation using GraphPad Prism® (errors are indicated as standard deviations, n=3)."}, "[2]": {"target": "T1, TaPHD^64-300", "test": "1D CLIP HSQC NMR binding studies with [^13C]-prolyl-labelled reporter ODD peptides", "details": "1:1 enzyme:ODD, 50 µM [^13C]-proline-labelled peptide, 50 µM TaPHD, Zn(II), 50 µM 2OG, 50 mM Tris-D11 pH 7.5, 10% D2O/90% H2O, n=3", "protocol": "as §1\nTo more directly investigate the extent to which TaPHD^64-300 can bind HsHIF1α NODD and CODD, we performed 1D CLIP HSQC NMR binding studies with HsHIF1α CODD and HsHIF1α NODD peptides labeled with [^13C] at the target prolyl residues which undergo hydroxylation during catalysis (Figure 2C)."}, "[3]": {"target": "T2, HsPHD2^181-426 (Homo sapiens, UniProt Q9GZT9)", "T2 construct": "compared to the truncated human PHD isoform 2 (HsPHD2^181-426)", "T2 sequence (Q9GZT9 181-426)": "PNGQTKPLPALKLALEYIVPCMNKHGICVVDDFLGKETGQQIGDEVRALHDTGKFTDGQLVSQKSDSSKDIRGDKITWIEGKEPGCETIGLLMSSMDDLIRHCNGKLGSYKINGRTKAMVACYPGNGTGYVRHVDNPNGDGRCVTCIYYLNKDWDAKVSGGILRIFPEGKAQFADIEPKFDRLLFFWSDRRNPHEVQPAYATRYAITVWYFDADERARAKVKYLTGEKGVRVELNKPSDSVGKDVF", "test": "MALDI-TOF-MS peptide hydroxylation steady-state kinetics, HsPHD2^181-426", "assay_type": "biochemical", "details": "peptide varied, 3.5–7.0 µM enzyme, 50 µM (NH4)2Fe(II)(SO4)2, 4 mM ascorbate, 300 µM 2OG; for Km: 50 mM Tris pH 7.5, Michaelis-Menten fit, ± SD, n=3, read-out: Km (peptide substrate); for kcat (peptide substrate): 50 mM Tris pH 7.5, ± SD, n=3", "protocol": "as §1"}, "[4]": {"target": "T2, HsPHD2^181-426", "set-up": "method as in PMID 25120187", "details": "previous studies, read-out: Km (peptide substrate), previous studies; cited from earlier work"}, "[5]": {"tested_on": "HsPHD2 P317R", "details": "HsPHD2 P317R variant; Figure S4, reference not given; cited from earlier work", "description": "(§2) In both the TaPHD.TaODD and HsPHD2.CODD[34] structures, a salt-bridge between an arginine residue in the C-terminal α4-helix and an aspartate residue in the C-terminus of the respective peptide (R292TaPHD/D494TaODD, R396HsPHD2/D571HsHIF1α CODD) is formed (Figure S4). However, this salt-bridge is not present in the HsPHD2.NODD complex structure, where the HsHIF1α NODD peptide is positioned further from the C-terminal helix and interacts with the C-terminal region of HsPHD2 via hydrophobic contacts. Studies with the TaODD and HsPHD2 variants, including with HsPHD2 P317RHsPHD2 and R396THsPHD2, wh ..."}, "[6]": {"tested_on": "HsPHD2", "details": "read-out: Km (O2); cited from earlier work"}, "[7]": {"target": "T1, TaPHD^64-300", "test": "Steady-state O2-dependence of TaPHD (MALDI-TOF-MS)", "assay_type": "biochemical", "details": "TaPHD^64-300 with TaODD 25mer", "protocol": "as §1\nIn order for the PHDs to act as hypoxia sensors in cells, their activity must be limited by oxygen availability. […] In order to study the O2 dependence of the TaPHD-catalyzed reaction, steady-state kinetics, using reported experimental conditions for HsPHD2;[29] were conducted. TaPHD^64-300 was reacted with its peptidic substrate in sealed glass-vials under varied oxygen concentrations,[29] the initial rates of TaODD 25mer hydroxylation were determined by MALDI–TOF-MS (Figure 2F and G)."}, "[8]": {"target": "T1, TaPHD^64-300", "details": "relative to TaODD 25mer and CODD 19mer; cited from earlier work", "description": "The HIF system in T. adhaerens is apparently markedly simpler than in humans because it contains only one PHD (TaPHD), and one HIFα isoform with a single ODD (TaODD, Figure 1A).[16] […] To further investigate the substrate preferences of TaPHD^64–300, its affini ..."}, "[9]": {"tested_on": "HsPHD2 R396T", "details": "HsPHD2 R396T variant; Figure S4, reference not given; cited from earlier work", "description": "as §2"}, "[10]": {"target": "T1, TaPHD^64-300", "details": "TaPHD with natural substrate (500 µM); 20 µM enzyme, 125 µM Fe(II), 1 mM ascorbate, 400 µM 2OG, 50 mM Tris-D11 pH 7.5; ^1H NMR"}, "[11]": {"substrate": "O=C(O)CCC(=O)C(=O)O", "test": "MALDI-TOF-MS peptide hydroxylation steady-state kinetics, TaPHD^64-300", "assay_type": "biochemical, Trichoplax adhaerens", "details": "other: TaPHD^64-300, 2OG varied, 100 µM peptide, 50 µM (NH4)2Fe(II)(SO4)2, 4 mM ascorbate, 50 mM Tris pH 7.5, ± SD, n=3, 37.0 °C"}},
  "note": "“Also recorded” adds a separate entry of the source. Read-outs that look alike come from different tables or passages of the source.",
  "data": [
    {"molecule": "DLDLEMLAPYIPMDDDFQL-NH2 [HsHIF1α CODD 19mer, 19mer peptide of the human HIF1α C-terminal ODD]", "values": [
      {"measurement": "hydroxylation by TaPHD (in words)", "setting": "[1]", "result": "efficiently catalyzes the hydroxylation"},
      {"measurement": "Km", "setting": "[1]", "result": "15.1 ± 2.2", "unit": "µM"},
      {"measurement": "kcat (peptide substrate)", "setting": "[1]", "result": "0.012 ± 0.001", "unit": "s⁻¹"},
      {"measurement": "binding to TaPHD (in words)", "setting": "[2]", "result": "higher binding affinity of TaPHD for HsHIF1α CODD over NODD; also recorded: apparently completely bound"},
      {"measurement": "Km", "setting": "[3]", "result": "10.8 ± 1.9", "unit": "µM"},
      {"measurement": "kcat (peptide substrate)", "setting": "[3]", "result": "0.027 ± 0.001", "unit": "s⁻¹"},
      {"measurement": "Km", "setting": "[4]", "result": "9 ± 3", "unit": "µM"},
      {"measurement": "ODD selectivity of HsPHD2 P317R (in words)", "setting": "[5]", "result": "selective for CODD"}
    ]},
    {"molecule": "PINEKEDYDDLAPFVPPPSFDNRLY-NH2 [TaODD 25mer, 25mer peptide of the single ODD of T. adhaerens HIFα, natural substrate of TaPHD]", "values": [
      {"measurement": "hydroxylation by TaPHD (in words)", "setting": "[1]", "result": "efficiently catalyzes the hydroxylation"},
      {"measurement": "Km", "setting": "[1]", "result": "11.5 ± 1.8", "unit": "µM"},
      {"measurement": "kcat (peptide substrate)", "setting": "[1]", "result": "0.026 ± 0.001", "unit": "s⁻¹"},
      {"measurement": "Km", "setting": "[3]", "result": "40.5 ± 4.9", "unit": "µM"},
      {"measurement": "kcat (peptide substrate)", "setting": "[3]", "result": "0.035 ± 0.002", "unit": "s⁻¹"}
    ]},
    {"molecule": "O=O", "note": "[O2, oxygen]", "values": [
      {"measurement": "Km", "setting": "[6]", "result": "> 400", "unit": "µM"},
      {"measurement": "Km", "setting": "[7]; 4 µM enzyme, 100 µM TaODD, 50 µM Fe(II), 300 µM 2OG, 4 mM ascorbate, 50 mM Tris pH 7.5, 37°C, varied % O2, n=3", "result": "> 400", "unit": "µM"},
      {"measurement": "O2 saturation (in words)", "setting": "[7]; at 60% O2 level, 37°C, pH 7.5", "result": "No saturation of O2 was reached"}
    ]},
    {"molecule": "DALTLLAPAAGDTIISLDF-NH2 [HsHIF1α NODD 19mer, 19mer peptide of the human HIF1α N-terminal ODD]", "values": [
      {"measurement": "hydroxylation by TaPHD (in words)", "setting": "[1]", "result": "not turned over above background level"},
      {"measurement": "hydroxylation by TaPHD, earlier report (in words)", "setting": "[8]", "result": "hydroxylated less efficiently"},
      {"measurement": "ODD selectivity of HsPHD2 R396T (in words)", "setting": "[9]", "result": "NODD"}
    ]},
    {"molecule": "O=C(O)CCC(=O)C(=O)O", "note": "[2OG, 2-oxoglutarate]", "values": [
      {"measurement": "2OG decarboxylation in presence of substrate", "setting": "[10]", "result": "strongly increased in presence of substrate"}
    ]},
    {"molecule": "B1", "values": [
      {"measurement": "Km", "setting": "[11]", "result": "1.9 ± 0.3", "unit": "µM"}
    ]}
  ]
}
